According to publication PMC8944544, “IPA-3: An Inhibitor of Diadenylate Cyclase of Streptococcus suis with Potent Antimicrobial Activity” (Antibiotics, 2022):

Columns and labels:
[1] = target: T1, diadenylate cyclase of Streptococcus suis (ssDacA) (Streptococcus suis, UniProt A0A0H3N0L3); assay: HPLC quantification of product formed by purified enzyme; assay type: biochemical
T1 construct: gene dacA; C-terminal catalytic domain (residues 99 to 283), His-tagged, from S. suis SC19

[2] = target: T1, diadenylate cyclase of Streptococcus suis (ssDacA); assay: Kinase-Glo ATP consumption assay with purified enzyme ([…] ssDacA); confirmed by HPLC of c-di-AMP; assay type: biochemical

T1 sequence (A0A0H3N0L3 entry or part of it): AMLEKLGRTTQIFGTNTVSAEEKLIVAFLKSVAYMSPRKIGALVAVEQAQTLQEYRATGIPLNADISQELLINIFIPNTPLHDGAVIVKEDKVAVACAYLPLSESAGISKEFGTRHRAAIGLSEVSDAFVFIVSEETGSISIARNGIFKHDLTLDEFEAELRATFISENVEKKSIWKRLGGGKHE

IC50 [2] | SMILES | HPLC quantification of product formed by purified enzyme [1]
 | Nc1ncnc2c1ncn2[C@@H]1O[C@@H]2COP(=O)(O)O[C@H]3[C@@H](O)[C@H](n4cnc5c(N)ncnc54)O[C@@H]3COP(=O)(O)O[C@H]2[C@H]1O [c-di-AMP] | the catalytic product c-di-AMP in the reaction was detected in the presence and absence of IPA-3 in vitro
38.2 µM | Oc1ccc2ccccc2c1SSc1c(O)ccc2ccccc12 [IPA-3, 2,2′-dihydroxy-1,1′-dinapthyldisulfide] | 
